In EP4696688A1, “BENZO-FUSED RING COMPOUND INHIBITOR, AND PREPARATION METHOD THEREFOR AND USE THEREOF” (Shanghai Hansoh Biomedical Co., Ltd., priority 2023, dated 2024) one finds EC50 and hsF data, which are given here for 21 compounds.

pEC50: −log10 of the molar value.

For one assay, the target named is T1, human CYP11B2 (Homo sapiens, UniProt P19099).
T1 construct: The main elements of an expression plasmid include ORF of human CYP11B1 or human CYP11B2; expressed in transfected cells
T1 sequence (P19099 25-503): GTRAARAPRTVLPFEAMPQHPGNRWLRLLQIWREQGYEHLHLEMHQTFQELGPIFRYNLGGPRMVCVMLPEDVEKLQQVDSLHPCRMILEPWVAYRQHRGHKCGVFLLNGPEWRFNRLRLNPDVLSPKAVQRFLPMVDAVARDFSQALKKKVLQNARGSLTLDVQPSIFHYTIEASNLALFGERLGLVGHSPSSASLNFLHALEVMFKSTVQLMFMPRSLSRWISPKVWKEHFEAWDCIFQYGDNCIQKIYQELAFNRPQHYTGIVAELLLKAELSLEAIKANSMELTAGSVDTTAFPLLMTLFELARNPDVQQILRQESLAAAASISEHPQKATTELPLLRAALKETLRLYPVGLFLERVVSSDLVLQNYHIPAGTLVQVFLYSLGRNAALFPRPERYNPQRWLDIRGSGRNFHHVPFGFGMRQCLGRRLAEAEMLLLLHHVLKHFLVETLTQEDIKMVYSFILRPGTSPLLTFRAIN
In words: G-402 cell enzyme experiment, CYP11B2 (aldosterone product, HTRF). To be noted: G-402 cells stably expressing human CYP11B2, 1 µM 11-deoxycorticosterone, 16 h. It counts as cell-based. From the text:
(§1) G-402 cell line was used as host cells to express (by transient or stable transfection) an enzyme of the human CYP11 family. Specifically, G-402 cell lines stably expressing human CYP11B1 and human CYP11B2 were established respectively. […] Therefore, the G-402 cell line is very suitable as a host cell for the ectopic expression of an enzyme of the CYP11 family.
(§2) The G-402 cell line, originally derived from renal myoblastoma, can be obtained from ATCC (CRL-1440). The main elements of an expression plasmid include ORF of human CYP11B1 or human CYP11B2, a suitable promoter (CMV promoter), and a suitable resistance marker (neomycin). The expression plasmid was transfected into G-402 cells by standard technology, and a specific antibiotic was then given for screening. The activity of the enzyme expressed by the screened monoclonal cells was assessed by 11-deoxycorticosterone (substrate of CYP11B2) and 11-deoxycortisol (substrate of CYP11B1).
(§3) The G-402 cells expressing CYP11 plasmid, as established in the above solution, were cultured in McCoy's 5a Modified Medium (ATCC Catalog No. 30-2007) containing 10% FCS and 400 µg/ml G418 in an incubator at 37°C and 5% CO2. A cell enzyme experiment was carried out using DMEM/F12 medium containing 2.5% charcoal-treated FBS and an appropriate concentration of a substrate (1 µM 11-deoxycorticosterone or 1 µM 11-deoxycortisol). In order to detect the activity of the enzyme in the cells, the cells were plated in a 96-well plate and incubated for 16 h. The supernatant was then transferred and analyzed for the concentration of the expected product (the product of CYP11B2: aldosterone; the product of CYP11B1: cortisol). The concentrations of these products were determined by an HTRF experiment of CisBio.
(§4) In the cell enzyme experiment, the inhibitory effect of the test compound on the generated product can reflect the inhibitory effect thereof on the enzyme. The dose-dependent inhibition of the enzyme activity by the compound was calculated by plotting the concentration of the test compound (x axis) versus the measured product level (y axis). Then, the original data was fitted to a 4-parameter sigmoidal function (Morgan-Mercer-Flodin, MMF model) by least square method: y = (AB + Cx^D) / (B + x^D) in which A is the maximum y value, B is the EC50 determined by XLFit, C is the minimum y value, and D is the slope value. The maximum value A corresponds to the amount of the product detected without an inhibitor, and C corresponds to the amount of the product detected in the G402 cells expressing an empty plasmid.
(§5) The EC50 value of the compound of the present invention was determined by the above G-402 experiment system. The activity of the CYP11B2 enzyme was determined under the conditions of 1 µM 11-deoxycorticosterone and a variable amount of the inhibitor, and the activity of the CYP11B1 enzyme was determined under the conditions of 1 µM 11-deoxycortisol and a variable amount of the inhibitor.

A further assay addresses T2, human CYP11B1 (Homo sapiens, UniProt P15538).
T2 construct: The main elements of an expression plasmid include ORF of human CYP11B1 or human CYP11B2; expressed in transfected cells
T2 sequence (P15538 25-503): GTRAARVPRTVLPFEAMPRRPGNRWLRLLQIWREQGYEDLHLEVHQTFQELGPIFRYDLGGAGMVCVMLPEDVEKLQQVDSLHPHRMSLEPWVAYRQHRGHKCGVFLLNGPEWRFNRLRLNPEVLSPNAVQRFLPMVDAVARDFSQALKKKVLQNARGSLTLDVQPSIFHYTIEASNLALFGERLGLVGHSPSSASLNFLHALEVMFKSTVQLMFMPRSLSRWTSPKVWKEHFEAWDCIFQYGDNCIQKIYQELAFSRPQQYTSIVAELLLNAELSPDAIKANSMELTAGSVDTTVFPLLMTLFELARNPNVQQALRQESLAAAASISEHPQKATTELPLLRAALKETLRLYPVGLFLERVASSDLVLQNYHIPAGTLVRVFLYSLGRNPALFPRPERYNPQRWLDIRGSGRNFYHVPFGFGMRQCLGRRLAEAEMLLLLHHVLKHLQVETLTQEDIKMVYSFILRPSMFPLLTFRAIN
In words: G-402 cell enzyme experiment, CYP11B1 (cortisol product, HTRF), selectivity versus CYP11B2. It counts as cell-based. The conditions noted are these: human selective factor: ratio of CYP11B1 EC50 to CYP11B2 EC50; G-402 cells.
From the text: as §1, §2, §3, §4, §5
(Time-resolved FRET reads energy transfer from a long-lived donor to a nearby acceptor.)

Broadly, the pEC50 is the negative decadic logarithm of the EC50, by convention in mol/L.

As for `CCS(=O)(=O)N1CC(Oc2cncc(-c3ccc4nc(OC)ccc4c3)c2)C1` [Example 22, 6-(5-((1-(ethylsulfonyl)azetidin-3-yl)oxy)pyridin-3-yl)-2-methoxyquinoline], the negative logarithm of the EC50 (pEC50) at human CYP11B2 was 8.30.
Regarding `COc1ccc2cc(-c3cncc4c3CCCC4NC(C)=O)ccc2n1` (stereo not drawn) [Example 24-A], the pEC50 on human CYP11B2 was 7.80. Against the preceding compound, the pEC50 is 0.50 log units lower.
On to `CCC(=O)N1CC2(C1)CN(c1cncc(-c3ccc4nc(OC)ccc4c3)c1)C2` [Example 36, 1-(6-(5-(2-methoxyquinolin-6-yl)pyridin-3-yl)-2,6-diazaspiro[3.3]heptan-2-yl)propan-1-one], for which the pEC50 at human CYP11B2 was 7.59. Moreover, the hsF at human CYP11B1 is on record as 2766x.
In the case of `CCC(=O)NC1CCCc2c(-c3cc(F)c4c(c3)CCc3nncn3-4)cncc21` (stereo not drawn) [Example 37, N-(4-(9-fluoro-4,5-dihydro-[1,2,4]triazolo[4,3-a]quinolin-7-yl)-5,6,7,8-tetrahydroisoquinolin-8-yl)propanamide], the negative-log EC50 (pEC50) at human CYP11B2 is 7.46.
In turn, `COc1ccc2cc(-c3cncc(NC4CN(C(=O)c5cnn(C)c5)C4)c3)ccc2n1` [Example 40, (3-((5-(2-methoxyquinolin-6-yl)pyridin-3-yl)amino)azetidin-1-yl)(1-methyl-1H-pyrazol-4-yl)methanone] gave a negative logarithm of the EC50 (pEC50) on human CYP11B2 of 7.89. Also, on human CYP11B1, the hsF was determined as 2541x.
For the compound `COc1ccc2cc(-c3cncc(N4CC5(CN(C(=O)c6cnn(C7CC7)c6)C5)C4)c3)ccc2n1` [Example 43, (1-cyclopropyl-1H-pyrazol-4-yl)(6-(5-(2-methoxyquinolin-6-yl)pyridin-3-yl)-2,6-diazaspiro[3.3]heptan-2-yl)methanone], the negative logarithm of the EC50 (pEC50) at human CYP11B2 was 7.30. Moreover, the hsF on human CYP11B1 is given as > 4023x.
`COc1ccc2cc(-c3cncc(N4CCN(C(=O)c5cnn(C)c5)CC4)c3)ccc2n1` [Example 50, (4-(5-(2-methoxyquinolin-6-yl)pyridin-3-yl)piperazin-1-yl)(1-methyl-1H-pyrazol-4-yl)methanone] had a negative logarithm of the EC50 (pEC50) at human CYP11B2 of 8.10.
At human CYP11B2, `COc1ccc2cc(-c3cncc(N4CC5(CCN(C(=O)c6cnn(C)c6)C5)C4)c3)ccc2n1` [Example 51, (2-(5-(2-methoxyquinolin-6-yl)pyridin-3-yl)-2,6-diazaspiro[3.4]octane-6-yl)(1-methyl-1H-pyrazol-4-yl)methanone] gave a negative logarithm of the EC50 (pEC50) of 7.62. Also, the hsF at human CYP11B1 is 157x.
Turning to `COc1ccc2cc(-c3cncc(NC4CN(C(=O)c5cnn(C6CC6)c5)C4)c3)ccc2n1` [Example 54, (1-cyclopropyl-1H-pyrazol-4-yl)(3-((5-(2-methoxyquinolin-6-yl)pyridin-3-yl)amino)azetidin-1-yl)methanone], the pEC50 at human CYP11B2 was 7.68. The hsF on human CYP11B1 came to 404x.
`COc1ccc2cc(-c3cncc(NC4CCN(C(=O)c5cnn(C)c5)CC4)c3)ccc2n1` [Example 56, (4-((5-(2-methoxyquinolin-6-yl)pyridin-3-yl)amino)piperidin-1-yl)(1-methyl-1H-pyrazol-4-yl)methanone]: the pEC50 at human CYP11B2 was 8.15. Further, the hsF at human CYP11B1 was found to be 159x.
The compound `COc1ccc2cc(-c3cncc(N4CC5(CCN(C(=O)c6cnn(C)c6)CC5)C4)c3)ccc2n1` [Example 62, (2-(5-(2-methoxyquinolin-6-yl)pyridin-3-yl)-2,7-diazaspiro[3.5]nonan-7-yl)(1-methyl-1H-pyrazol-4-yl)methanone] gave a negative-log EC50 (pEC50) at human CYP11B2 of 7.85. Also, the hsF on human CYP11B1 is recorded as 174x.
The matching figures for `COc1ccc2cc(-c3cncc(N4CC5(CC(NC(=O)c6cnn(C)c6)C5)C4)c3)ccc2n1` [Example 63, N-(2-(5-(2-methoxyquinolin-6-yl)pyridin-3-yl)-2-azaspiro[3.3]heptan-6-yl)-1-methyl-1H-pyrazole-4-carboxamide]: 8.22 and 1912x.
In the case of `CCC(=O)NC1CC2(C1)CN(c1cncc(-c3ccc4nc(OC)ccc4c3)c1)C2` [Example 64, N-(2-(5-(2-methoxyquinolin-6-yl)pyridin-3-yl)-2-azaspiro[3.3]heptan-6-yl)propanamide], the pEC50 at human CYP11B2 was 7.49.
`CCC(=O)N[C@@H]1CCCc2c(-c3ccc4c(c3)sc(=O)n4C)cncc21` [Example 65, (R)-N-(4-(3-methyl-2-oxo-2,3-dihydrobenzo[d]thiazol-6-yl)-5,6,7,8-tetrahydroisoquinolin-8-yl)propanamide] showed a pEC50 on human CYP11B2 of 7.05.
For the compound `CCC(=O)Nc1cccc2c(-c3ccc4nc(OC)ccc4c3)cncc12` [Example 68, N-(4-(2-methoxyquinolin-6-yl)isoquinolin-8-yl)propanamide], at human CYP11B2, the pEC50 is 7.48.
In turn, `Cn1c(=O)ccc2cc(-c3cncc(C4=CCN(S(=O)(=O)C5CC5)CC4)c3)ccc21` [Example 70, 6-(1'-(cyclopropylsulfonyl)-1',2',3',6'-tetrahydro-[3,4'-bipyridin]-5-yl)-1-methylquinolin-2(1H)-one] gave a pEC50 on human CYP11B2 of 7.26. Further, the hsF at human CYP11B1 turned out to be 252x.
Compound `COc1ccc2cc(-c3cncc(N4CCC(NC(=O)c5cnn(C)c5)CC4)c3)ccc2n1` [Example 71, N-(1-(5-(2-methoxyquinolin-6-yl)pyridin-3-yl)piperidin-4-yl)-1-methyl-1H-pyrazole-4-carboxamide] showed a pEC50 at human CYP11B2 of 8.40.
With `[2H]C([2H])([2H])N(C(=O)c1cnn(C)c1)C1CCN(c2cncc(-c3ccc4nc(OC)ccc4c3)c2)CC1` [Example 72, N-(1-(5-(2-methoxyquinolin-6-yl)pyridin-3-yl)piperidin-4-yl)-1-methyl-N-(methyl-d3)-1H-pyrazole-4-carboxamide], the pEC50 on human CYP11B2 was 8.00.
In turn, `COCC(=O)N1CC2(C1)CN(c1cncc(-c3ccc4nc(OC)ccc4c3)c1)C2` [Example 80, 2-methoxy-1-(6-(5-(2-methoxyquinolin-6-yl)pyridin-3-yl)-2,6-diazaspiro[3.3]heptan-2-yl)ethan-1-one] had a negative logarithm of the EC50 (pEC50) on human CYP11B2 of 7.77.
With `CN(c1cncc(-c2ccc3c(c2)sc(=O)n3C)c1)C1CN(C(=O)c2cnn(C)c2)C1` [Example 89, 3-methyl-6-(5-(methyl(1-(1-methyl-1H-pyrazole-4-carbonyl)azetidin-3-yl)amino)pyridin-3-yl)benzo[d]thiazol-2(3H)-one], the negative-log EC50 (pEC50) on human CYP11B2 is 8.05.
Same read-out and setting: the value for `CCS(=O)(=O)N1CC(Oc2cncc(-c3ccc4c(c3)sc(=O)n4C)c2)C1` [Example 90, 6-(5-((1-(ethylsulfonyl)azetidin-3-yl)oxy)pyridin-3-yl)-3-methylbenzo[d]thiazol-2(3H)-one] was 7.64.
